Patent publication US20150064328A1, “REBAUDIOSIDE C AND ITS STEREOISOMERS AS NATURAL PRODUCT SWEETNESS ENHANCERS” (Redpoint Bio Corporation, priority 2009, published 2015)
Entries after “also recorded” stand apart in the source; their conditions may differ.

Legend:
[1] = Open qualitative taste report of Reb C water solutions; format: in vivo, human; details: 250 and 300 μM Reb C in water; all 4 subjects gave the same description
Procedure: The taste of 250 μM and 300 μM Reb C solutions were evaluated as follows by another test group having four (4) subjects as follows: 10 ml solutions of 250 and 300 μM Reb C in water were sampled by four subjects who were asked to report their qualitative taste experience of the solutions.

[2] = Forced-choice taste test of Reb C water solution versus water; format: in vivo, human; details: 250 μM Reb C water solution
Procedure: The taste of a 250 μM Reb C solution was evaluated by a test group having five (5) subjects as follows (Forced-choice): Subjects were presented with 2 cups, each containing 10 ml of either 250 μM Reb C water solution or water (room temperature). […] Subjects were asked to sip most or all of the 10 ml from the first cup, swish the liquid in their oral cavity, and expectorate into a cup, then rinse their mouths vigorously with water. Soon thereafter, the contents of the second cup were sampled in the same manner. Then, subjects were asked to choose the sweeter of the two samples, or if not sweet, to describe the qualitative taste profile of the sample having a detectable taste.

[3] = Quantitative taste profile by trained panel (sweet, bitter, salt, sour, licorice); format: in vivo, human
Procedure: The taste of 150, 300, and 600 μM Reb C was evaluated by a test group. 10 panelists were trained over a period of a few weeks to provide a quantitative flavor profile of Reb C. Panelists first were trained using standard tastants representing the different taste modalities given in FIG. 7 (i.e., sweet, bitter, salt, sour, and licorice). They then were trained to use the scales when flavors were mixed together. All intensity ratings are on scales ranging from 0 (no taste) to 8 (highest intensity). The intensity rating for sweet is essentially the same as used in Examples 1 and 6. The taste profiles were obtained for 150, 300, and 600 μM Reb C. Reb A (0.2 mg/ml, a concentration used in some food/beverage applications for sweetening) was also evaluated in the test for comparison. The scale is not linear at the bottom. A rating of 1 is around the threshold for sweetness detection.

[4] = Double-blind controlled sweetness intensity test, sequential monadic, taste and swallow (Example 6 protocol); format: in vivo, human
[5] = Double-blind controlled sweetness intensity test, sequential monadic, sip and spit (Example 1 protocol); format: in vivo, human
From the text: As used herein, the term “sweetness intensity” refers to the relative strength of sweet sensation as observed or experienced by an individual, e.g., a human, or a degree or amount of sweetness detected by a taster, for example on the scale from 0 (none) to 8 (very strong) (see Example 1) used in sensory evaluations according to the procedure described in American Society for Testing Materials, Special Technical Publication-434: “Manual on Sensory Testing Methods,” ASTM International, West Conshohocken, Pa. (1996). The sweetness enhancing effect of 300 μM Reb C (Chromadex, CA; purity 94.9%; 2.9% impurities other than water) on 5% (w/v-%) sucrose solution was evaluated in a double-blind controlled test conducted according to the following protocol. Three products were evaluated by trained judges as follows: • high concentration sucrose (7% w/v) • low concentration sucrose (5% w/v) • low concentration sucrose+sweetness enhancer (test compound) The products were evaluated using a sequential monadic test protocol. Subjects were given three samples to evaluate. Each subject was directed to swirl the first sample in his or her mouth for 3-5 seconds, expectorate the entire sample into a discard cup, and then assess the sweetness intensity of the sample. The intensity was rated on a score card by marking a numerical value along a scale from 0 to 8 (e.g., 0-none, 2=slight, 4=definite, 8=very strong). Following the decision regarding the sweetness intensity, subjects were instructed to rinse their mouth with water and spit in the discard cup. Subjects then were given unsalted crackers to cleanse the palate. A period of 10 minutes elapsed between presentations of each sample to reduce the potential influence of residual taste effects. A second sample was then presented and evaluated as above and the same procedure was followed until all three products were evaluated. Sample presentation was randomized to avoid order of presentation bias. To participate in the sensory panel, judges or subjects were chosen from an expert taste panel. These subjects were screened for taste acuity and were trained in evaluating solutions using the sip and spit protocol and were trained in using a rating ballot. The number of judges who participated in the study was 20. The female subjects were all non-pregnant and all volunteers were of <55 years of age with no history of allergy to sucrose. Judges were asked to execute an informed consent form. Specifically, the following instructions were given to the judges: Please take a sip of water. Carefully take the cap off the sample cup placed in front of you. Sip, swirl for 3-5 seconds, and then spit the sample into the cup provided, then assess the intensity of the sweetness of the sample. Please evaluate the sample for the intensity of the sweet flavor and put a vertical mark on the number that best describes the intensity. Rinse your mouth with the water provided and spit into the discard cup. Use crackers provided to cleanse your palate before evaluating the next sample. If any other flavor was present in the sample please describe it. Please rinse your mouth again several times and have some more water and unsalted crackers. You will now have a rest period of 10 minutes before you will be given the next sample.

[6] = cited from earlier work
[7] = 300 μM Reb C in 8% (w/v-%) fructose solution, FIG. 16
[8] = sweetness intensities equivalent to 3% (w/v-%) sucrose
[9] = sweetness intensities equivalent to 7% (w/v-%) sucrose

With `C=C1C[C@@]23CC[C@H]4[C@@](C)(CCC[C@@]4(C)C(=O)O[C@@H]4O[C@H](CO)[C@@H](O)[C@H](O)[C@H]4O)[C@@H]2CC[C@]1(O[C@@H]1O[C@H](CO)[C@@H](O)[C@H](O[C@@H]2O[C@H](CO)[C@@H](O)[C@H](O)[C@H]2O)[C@H]1O[C@@H]1O[C@@H](C)[C@H](O)[C@@H](O)[C@H]1O)C3` [Reb C, Rebaudioside C] the qualitative taste description [1] was “Both concentrations bitter and/or licorice”, the “identification of the sample containing Reb C versus water” value ([2]; 5 subjects, forced-choice) was “All subjects correctly identified the sample containing Reb C” and the “qualitative taste description, one per subject” value ([2]; subjects 1 to 5) was “Metallic, not sweet; also recorded: Aversive (“Nasty”); also recorded: Slight sweet, astringent; also recorded: Faintly sweet; also recorded: Slight sweet/licorice”. The “unpleasant tastes, bitter and licorice” value ([3]; 150, 300 and 600 μM Reb C alone, FIG. 7) was “barely detected”, the intrinsic sweetness ([3]; 150, 300 and 600 μM Reb C, 10 panelists, scale 0 to 8, FIG. 7) was “little or no intrinsic sweetness” and the “unpleasant tastes, bitter and licorice, when combined with sugar” value ([3]; Reb C combined with sugar) was “undetected”. The “statistical significance of the effect of Reb C” value [4, 7] was “not statistically significant”, the “sweetness of fructose solution in combination with Reb C” value [4, 7] was “between that of the 8% (w/v-%) fructose solution and that of an 11% (w/v-%) fructose solution” and the “sweetness of iced tea with sucrose in combination with Reb C” value ([4]; 300 μM Reb C in iced tea with 8% (w/v-%) sucrose, FIG. 6) was “between that of the 8% (w/v-%) sucrose solution and that of an 11% (w/v-%) sucrose solution”. For the same compound, the “sweetness of iced tea with HFCS55 in combination with Reb C” value ([4]; 300 μM Reb C in iced tea with 10.39% (w/v-%) HFCS55, 20 judges, FIG. 5) was “indistinguishable from that of a 14.29% (w/v-%) HFCS55 (HFCS) solution”, the “sweetness intensity of cola beverage with HFCS55 in combination with Reb C” value ([4]; 190 ppm Reb C, 10.39% (w/v-%) HFCS55, buffered with citric acid, pH 2.7-2.8, FIG. 10) was “significantly increases the sweetness intensity to that of 14.29% HFCS55” and the “sweetness of cola beverage with HFCS55 in combination with Reb C” value ([4]; 190 ppm Reb C, 10.39% (w/v-%) HFCS55, buffered with phosphoric acid, FIG. 14) was “not higher than that of 10.39% (w/v-%) HFCS55 cola beverage alone”. For the same compound, the “sweetness of lemon-lime soda with HFCS55 in combination with Reb C” value ([4]; 190 ppm Reb C, 10.39% (w/v-%) HFCS55, citric acid 0.15%, pH 2.6-2.7, FIG. 12) was “did not reach the sweetness of a 14.29% (w/v-%) HFCS55 solution”, the “sweetness of erythritol solution in combination with Reb C” value ([4]; 285 ppm (300 μM) Reb C in 7.14% erythritol solution, equivalent to 5% (w/v-%) sucrose, FIG. 9) was “significantly sweeter than the 7.14% erythritol solution alone, but did not achieve the sweetness of a 10% erythritol solution” and the “sweetness intensity of cola beverage with HFCS55 in combination with Reb C” value ([4]; 310 ppm Reb C, 10.39% (w/v-%) HFCS55, buffered with phosphoric acid, FIG. 15) was “increased significantly the sweetness intensity of a cola beverage containing 10.39% (w/v-%) HFCS55, but did not reach the sweetness of a 14.29% (w/v-%) HFCS55 cola beverage”. The “sweetness of unsweetened cola beverage with Reb C” value ([4]; concentrations 190 ppm or below (95, 190 and 285 ppm tested), FIG. 11) was “does not increase the sweetness of an unsweetened cola beverage”, the “sweetness of unsweetened lemon-lime soda with Reb C” value ([4]; control group of Example 11, concentrations 190 ppm or below (95, 190 and 285 ppm tested)) was “does not increase the sweetness of an unsweetened cola beverage” and the “sweetness of sucrose solution in combination with Reb C” value (“sweetness of sucrose solution” for short) ([5]; 150 μM Reb C in 8% (w/v-%) sucrose solution, FIG. 4) was “between that of the 8% (w/v-%) sucrose solution and that of an 11% (w/v-%) sucrose solution”. For the same compound, the “sweetness of fructose solution in combination with Reb C” value ([5]; 300 μM Reb C in 5% (w/v-%) fructose solution, FIG. 2) was “close to that of a 7% (w/v-%) fructose solution”, the “sweetness of sucrose solution” value ([5]; 300 μM Reb C in 5% (w/v-%) sucrose solution, 20 judges, scale 0 to 8, FIG. 1) was “indistinguishable from that of a 7% (w/v-%) sucrose solution” and the “sweetness of sucrose solution” value ([5]; 300 μM Reb C in 8% (w/v-%) sucrose solution, FIG. 3) was “close to that of an 11% (w/v-%) sucrose solution”. For the same compound, the “mean sweetness intensity score” value ([5]; 8% (w/v-%) sucrose solution with 150 μM Reb C, scale 0 to 8, 8% sucrose solution alone scored 5.30) was 6.10.

For `C=C1C[C@@]23CC[C@H]4[C@@](C)(CCC[C@@]4(C)C(=O)O[C@@H]4O[C@H](CO)[C@@H](O)[C@H](O)[C@H]4O)[C@@H]2CC[C@]1(O[C@@H]1O[C@H](CO)[C@@H](O)[C@H](O[C@@H]2O[C@H](CO)[C@@H](O)[C@H](O)[C@H]2O)[C@H]1O[C@@H]1O[C@H](CO)[C@@H](O)[C@H](O)[C@H]1O)C3` [rebaudioside A], the “effect in mixtures with fructose and glucose” value [6, 8] is listed as “additive effect”, the “effect in mixtures with sucrose” value [6, 8] is listed as “synergistic effect” and the “effect in mixtures with fructose, glucose and sucrose” value ([6]; sweetness intensities equivalent to 5% (w/v-%)) is listed as “additive effect”. For the same compound, the “effect with a mixture with sucrose” value [6, 9] was “additive effect” and the “effect with mixtures with glucose and fructose” value [6, 9] was “suppressive effect”.

For `OC[C@H]1O[C@@](CO)(O[C@H]2O[C@H](CO)[C@@H](O)[C@H](O)[C@H]2O)[C@@H](O)[C@@H]1O` [sucrose, α-D-glucopyranosyl-(1->2)-β-D-fructofuranose, reference compound], the “mean sweetness intensity score” value ([5]; 11% (w/v-%) sucrose solution, high concentration comparator, scale 0 to 8) was 6.95.
